Values joined by “and” are separate entries in the source; they are usually repeats but may differ in a detail not shown here. Equal values may be shown once.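 Growth conditions: 96-well plates. Treatment: test compound, 48 hours, 5 concentrations. Analysis: linear interpolation between bracketing concentrations; unreached endpoints set to highest concentration. GI50: concentration for 50% inhibition of growth. TGI denotes the concentration required for complete inhibition of growth.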

Eleven compounds from PubChem BioAssay (NCI) can be followed below.

Among the test systems are A498 renal; HCT-15 colon; HOP-92 NSCLC; IGROV1 ovarian; MALME-3M melanoma; MOLT-4 leukemia; NCI-H460 lung; OVCAR-5 ovarian; RXF 393 renal; SK-MEL-2 melanoma; SK-OV-3 ovarian; SW-620 colon.
Holding throughout (assay): NCI tumour cell line growth inhibition, 48 h

Consider `CC1=C(O)c2ccccc2C(=O)C1=O`, for which the TGI in the experiment with A498 renal, in the experiment on HCT-15 colon, in the experiment with HOP-92 NSCLC, in the experiment with IGROV1 ovarian, in the experiment on MALME-3M melanoma and with MOLT-4 leukemia was > 100 µM in each case. Besides, the TGI in the experiment on NCI-H460 lung, with OVCAR-5 ovarian, in the experiment on RXF 393 renal, with SK-MEL-2 melanoma, in the experiment on SK-OV-3 ovarian and with SW-620 colon was > 100 µM in each case.
As for `COC(C)(C)/C=C/c1[nH]c2ccccc2c1CC(=O)NCCc1cn(C(c2ccccc2)(c2ccccc2)c2ccccc2)cn1`, the TGI was 12.9 µM with A498 renal; > 100 µM in the experiment on HCT-15 colon; > 28.3 µM in the experiment with HOP-92 NSCLC; > 100 µM in the experiment with IGROV1 ovarian; 11.7 µM in the experiment with MALME-3M melanoma; 6.21 µM with MOLT-4 leukemia. Moreover, the TGI is > 23.5 µM in the experiment on NCI-H460 lung; > 30.5 µM in the experiment with OVCAR-5 ovarian; > 100 µM in the experiment with RXF 393 renal; 6.45 µM in the experiment on SK-MEL-2 melanoma; > 34.9 µM with SK-OV-3 ovarian; > 100 µM in the experiment on SW-620 colon.
For the compound `CC(C)C1NC(=O)CC(c2ccccc2)N(N=O)C1c1ccccc1` (configuration not stated), the TGI in the experiment on A498 renal, in the experiment on HCT-15 colon, in the experiment on HOP-92 NSCLC, in the experiment on IGROV1 ovarian, in the experiment on MALME-3M melanoma and in the experiment on MOLT-4 leukemia was > 100 µM each time. Moreover, the TGI with NCI-H460 lung, in the experiment on OVCAR-5 ovarian, with RXF 393 renal, with SK-MEL-2 melanoma, in the experiment with SK-OV-3 ovarian and in the experiment on SW-620 colon was > 100 µM in each case.
As to `CC(C)=CCC[C@@H](C)C1=C(O)C(Nc2ccccc2Cl)=C(C)C(=O)C1=O`, the TGI in the experiment on A498 renal was > 56.9 µM; in the experiment on HCT-15 colon, > 75 µM; in the experiment with HOP-92 NSCLC, > 67.8 µM; in the experiment with IGROV1 ovarian, 46.5 µM; in the experiment with MALME-3M melanoma, 29.3 µM; with MOLT-4 leukemia it was > 57.5 µM. Besides, the TGI with NCI-H460 lung was > 75 µM; with OVCAR-5 ovarian it was > 75 µM; in the experiment with RXF 393 renal, > 50.8 µM; in the experiment on SK-MEL-2 melanoma, 46.7 µM; in the experiment with SK-OV-3 ovarian it was > 75 µM; in the experiment with SW-620 colon, > 75 µM.
As to `Nc1nc(NCCCO)cc(=O)[nH]1`, the TGI in the experiment with A498 renal, in the experiment with HCT-15 colon, with HOP-92 NSCLC, with IGROV1 ovarian, in the experiment with MALME-3M melanoma and with MOLT-4 leukemia was > 100 µM in each case. Also, the TGI in the experiment with NCI-H460 lung, with OVCAR-5 ovarian, in the experiment on RXF 393 renal, in the experiment with SK-MEL-2 melanoma, with SK-OV-3 ovarian and in the experiment on SW-620 colon was > 100 µM each time.
Take `COc1ccc(N=NC(=O)NC(CC(C)C)C(=O)NCC(=O)O)cc1` (configuration not stated): the TGI in the experiment on A498 renal, with HCT-15 colon, in the experiment with HOP-92 NSCLC, in the experiment on IGROV1 ovarian, with MALME-3M melanoma and with MOLT-4 leukemia was > 100 µM each time. Further, the TGI is > 58.7 µM in the experiment on NCI-H460 lung; > 100 µM in the experiment with OVCAR-5 ovarian; > 100 µM in the experiment on RXF 393 renal; > 100 µM in the experiment with SK-MEL-2 melanoma; > 100 µM with SK-OV-3 ovarian; > 100 µM in the experiment with SW-620 colon.
Turning to `O=C1O[C@H]2[C@H](OC(=O)c3cc(O)c(O)c(O)c3)[C@@H](OC(=O)c3cc(O)c(O)c4c3[C@@H]3C1=CC(=O)C(O)(O)C3(O)O4)[C@H](OC(=O)c1cc(O)c(O)c(O)c1)O[C@@H]2COC(=O)c1cc(O)c(O)c(O)c1` (some centres not stated), the TGI in the experiment with A498 renal, in the experiment on HCT-15 colon, in the experiment on HOP-92 NSCLC, in the experiment with IGROV1 ovarian, with MALME-3M melanoma and with MOLT-4 leukemia was > 100 µM in each case. In addition, the TGI with NCI-H460 lung, in the experiment on OVCAR-5 ovarian, in the experiment on RXF 393 renal, with SK-MEL-2 melanoma, with SK-OV-3 ovarian and with SW-620 colon was > 100 µM in each case.
For the compound `CN(CCCNC(=O)c1cn(C)c2c1Cc1ccccc1-2)CCCNC(=O)c1cn(C)c2c1Cc1ccccc1-2`, the TGI came out at 26.8 µM in the experiment on A498 renal; 25.2 µM with HCT-15 colon; 7.89 µM with HOP-92 NSCLC; 21.8 µM in the experiment with IGROV1 ovarian; 24.5 µM in the experiment on MALME-3M melanoma; 16.4 µM in the experiment on MOLT-4 leukemia. For the same compound, the TGI in the experiment with NCI-H460 lung was found to be 23.8 µM; with OVCAR-5 ovarian, 29.9 µM; in the experiment on RXF 393 renal it was 34.9 µM; in the experiment on SK-MEL-2 melanoma, 30.6 µM; in the experiment with SK-OV-3 ovarian, 32.6 µM; in the experiment with SW-620 colon, 18.5 µM.
In the case of `Cc1ccc2nc(C(C)C)c(=O)[nH]c2c1`, the TGI in the experiment with A498 renal, in the experiment on HCT-15 colon, in the experiment with HOP-92 NSCLC, in the experiment on IGROV1 ovarian, in the experiment on MALME-3M melanoma and in the experiment on MOLT-4 leukemia was > 100 µM in each case. Further, the TGI with NCI-H460 lung was > 100 µM; in the experiment on OVCAR-5 ovarian, > 100 µM; with RXF 393 renal, > 100 µM; with SK-MEL-2 melanoma, 28.2 µM; with SK-OV-3 ovarian, > 100 µM; in the experiment with SW-620 colon it was > 100 µM.
Consider `CCCCc1ccc(Nc2nc(OC)c3ncn(C4CC(O)C(CO)O4)c3n2)cc1` (configuration not stated), for which the TGI with A498 renal turned out to be 35.3 µM; with HCT-15 colon it was 34.3 µM; in the experiment with HOP-92 NSCLC, 5.03 µM; with IGROV1 ovarian, 27.2 µM; in the experiment on MALME-3M melanoma, 42.7 µM; in the experiment on MOLT-4 leukemia it was 36.7 µM. For the same compound, the TGI was 32.9 µM in the experiment with NCI-H460 lung; > 100 µM in the experiment on OVCAR-5 ovarian; 31.7 µM in the experiment with RXF 393 renal; 47.5 µM with SK-MEL-2 melanoma; 27.8 µM with SK-OV-3 ovarian; 39.8 µM in the experiment on SW-620 colon.
Turning to `COc1ccc(COC(=O)NCC(=O)NC(C)C(=O)NC(Cc2ccccc2)C(=O)OCc2ccccc2)cc1` (configuration not stated), the TGI in the experiment with A498 renal was 38.8 µM and > 100 µM; in the experiment on HCT-15 colon it was > 100 µM; in the experiment with HOP-92 NSCLC, 37.8 µM and > 100 µM; with IGROV1 ovarian, > 100 µM; in the experiment with MALME-3M melanoma, 37.6 µM and 92.3 µM; with MOLT-4 leukemia it was 55.9 µM and 49.3 µM. Further, the TGI is 22.7 µM in the experiment on NCI-H460 lung; > 100 µM in the experiment on OVCAR-5 ovarian; 82.2 µM with RXF 393 renal; 83.3 µM and > 100 µM in the experiment with SK-MEL-2 melanoma; 42.5 µM and > 100 µM with SK-OV-3 ovarian; > 100 µM in the experiment with SW-620 colon. Besides, the GI50 with HOP-92 NSCLC is 18.2 µM and 40.9 µM; in the experiment with MOLT-4 leukemia, 8.37 µM and 24.5 µM; in the experiment on OVCAR-5 ovarian, 36.3 µM and > 100 µM; in the experiment on SK-MEL-2 melanoma it was 35.5 µM and > 100 µM; with SK-OV-3 ovarian, 22.9 µM and > 100 µM.
